# Results published in patent publication US20020165136A1, “MHC peptides and methods of use” (Thomas Jefferson University, priority 1996, published 2002).
# Entries after “also recorded” stand apart in the source; their conditions may differ. Square brackets hold non-standard residues; d marks the D form. Ends that are not written are not given here. NMeA = CN[C@@H](C)C(=O)O
# Key:
# [1] = system: C6 cells; assay: In vivo apoptosis assay: peptide-pretreated C6 cells in a diffusion chamber implanted s.c. in rats; parameters: species or system rat; conditions: for % Recovery (24 hs) / ability to induce apoptosis (in words) / Percent Recovery: C6 cells; for % Recovery (24 hs): peptide at 5×10^−M, 24 hs in diffusion chamber, % of original inoculum; for ability to induce apoptosis (in words): preincubation at 10^−5 M; for Percent Recovery: 24 hours in diffusion chamber; for Recovery (%): C6 rat glioblastoma cells pre-treated with 50 μM peptide 24 hours in serum-free medium, chamber in rats 24 hours
# Experimental: (§1) The test for apoptosis in vivo was based on the use of the diffusion chamber described in detail by Resnicoff, M., et al., Cancer Res. 55: 2463-2469 (1995). According to this method, the cells are placed in a diffusion chamber that allows the passage of nutrients, antigens, antibodies, etc., but not of intact cells. The sterilized chamber is loaded with cells and then inserted into the subcutaneous tissue of rats or mice; after 24 hours, (or at other times, depending on the experiment) the chamber is removed and the number of cells in the chamber is determined with a hemocytometer, and expressed as a percentage of the original inoculum. The cells are also stained with trypan blue for viability; in the experience of the inventors, surviving cells are >95% viable.
# (§2) For in vivo effects, 5×10^5 cells (C6 and CaOV-3 were both used for these studies) were placed in diffusion chambers and implanted into the s.c. tissue of the animals. Once the skin was sutured, the peptides were injected s.c. next to the chambers at the indicated concentrations in a final volume of 0.2 ml. Twenty-four hours later, the chambers were removed from the animals and the cells were quantitatively recovered.
# (from gp100), involved in regression of human melanoma (Kawakami et al. 1994); 2) […], recognized by melanoma-specific human CTL lines (Cox et al, 1994); and 3) […], derived from connexin 37, that induces CTL responses against murine lung carcinoma (Mandelboim, et al., 1994). For each of these peptides, a control peptide having the same amino acid composition, but in scrambled order (controls), was also tested. C6 cells were preincubated with the peptides at a concentration of 10^−5M and transferred to the diffusion chamber (see Methods and Materials). Cell number was determined after 24 hours in the diffusion chamber transplanted into the subcutaneous tissue of rats.
# Two of the three peptides were selected for further studies of the effects of mutations on the ability to induce apoptosis. Several point mutations were introduced into the peptide […]. […] Mutations at tyrosine in position 1, or the two prolines in positions 4 and 6, effectively inactivated peptide no. 2. An exception to this observation was seen when the prolines were replaced by an N-methyl amino acid. Mutations at E3 or T8 had little effect, but when both residues were mutated, recovery increased to 77%.
# In order to determine the minimum concentration of these peptides that still would induce apoptosis in vivo, C6 cells were preincubated with different concentrations of the […] and D-amino acid […] peptides and recovery of viable cells was determined after 24 hours in the diffusion chamber.
# [2] = system: C6 cells; assay: Protection from subsequent challenge with wild type C6 cells; format: in vivo, rat
# Experimental: Synthetic peptide sequences listed above were tested at 5×10^−M on C6 cells. Tests for apoptosis and for protection from subsequent challenge with C6 cells are described herein. Point mutations are shown in bold characters.
# [3] = system: C6 glioblastoma cells; format: in vivo, rat; parameters: dose or concentration left out as unconfirmed; conditions: C6 cells pre-treated 24 hours in serum-free medium
# [4] = system: CaOV3 cells (human ovarian carcinoma cells); assay: Diffusion chamber assay, CaOV3 cells in mice, peptide injected s.c. next to chamber; format: in vivo, mouse; conditions: Balb/c mice, 0.2 ml of 0.05 mM peptide s.c. next to chamber, 24 hours
# Experimental: as §1, §2
# Human ovarian carcinoma cells CaOV3 (Resnicoff, et al. (1993)) were loaded into a diffusion chamber, and the chamber was inserted into the subcutaneous tissue of mice. The animals were then injected, also subcutaneously next to the chamber, with 0.2 ml of a 0.05 mM solution of four different peptides, and the number of cells was determined 24 hours later. […] The control peptide had no effect, and the number of cells more than doubled. CaOV3 cells also undergo apoptosis, as determined by FACS analysis.
# CaOV3 cells (human ovarian carcinoma cells, 5×10^5 cells) were placed without any previous treatment into diffusion chambers that were then implanted into the subcutaneous tissue of Balb/c mice. Animals were then injected subcutaneously next to the chambers either with 0.2 ml of a 0.05 mM solution of one of the three test peptides or with 0.2 ml of a 0.05 mM solution of the control peptide.
# [5] = system: C6 cells; assay: Tumorigenesis of C6 cells in nude mice; format: in vivo; conditions: for Expected Delay: calculated from % cells recovered; for Palpable Tumors: s.c. in nude mice
# Experimental: C6 cells pre-incubated with various concentrations (10^−12, 10^−10, 10^−8, and 10^−5 M) of the peptide YLRPGPVTA were injected simultaneously into nude mice and the time of appearance of subcutaneous tumors was determined. In parallel experiments, the percentage of cells killed in the diffusion chamber assay was determined. From the percentage of cells killed, the expected delay in the appearance of tumors in mice was calculated as described previously (Resnicoff, et al., Cancer Res. 55:3739 (1995)). […] The time of appearance of tumors is slightly more delayed than expected from the percentage of cells killed in 24 hours in the diffusion chamber assay, a phenomenon previously observed also with antisense oligodeoxynucleotides to the IGF-IR RNA (Resnicoff, et al., Cancer Res. 55:3739 (1995)).
# A similar inhibition of tumorigenesis was observed using the D-amino acid peptide LRLTATGDLL. In this case, the peptide (all D-aa, sequence from Kawakami, et al. (1994)) was injected s.c. into nude mice (0.1 ml, at the indicated concentrations), simultaneously with C6 cells (10^5 cells in 0.1 ml) and next to them. The animals were followed for tumor development. The results were as follows: For C6 cells without peptide injection, the tumors appeared after 4 days; for a peptide injection at 10^−10 to 10^−12 M, tumors appeared after 11 days.
# C6 cells were incubated with the synthetic peptide at the indicated final concentrations for 24 hours in serum-free medium before injection into the subcutaneous tissue of seven week-old male Dalb/c nude mice. Percentage recovery was determined using the diffusion chamber assay as described herein. Expected Delay is the number of days after injection before the tumors should become palpable, based on survival in vivo estimated by percentage of cells recovered. […] Three nude mice were used in each experimental condition.
# [6] = system: C6 cells; assay: FACS analysis of apoptotic cells in the diffusion chamber; parameters: species or system rat; conditions: C6 cells incubated in vivo for 90 minutes in diffusion chamber
# Experimental: In order to determine that the loss of cells upon treatment with active peptides was due to the induction of apoptosis, the presence of apoptotic cells within the diffusion chamber was determined at several time intervals by FACS analysis (Sell, et al. (1995)). FIG. 1 represents a typical experiment using C6 cells. […] In both cases, the cells had been incubated in vivo for 90 minutes in a diffusion chamber as described herein. […] Similar results were obtained at several time intervals thereafter.
# [7] = system: C6/p35 cells; assay: Diffusion chamber apoptosis test on C6 cells expressing baculovirus p35; format: in vivo, rat; conditions: untreated versus incubated with peptide
# Experimental: In addition, one of the common pathways of apoptotic injury is through the ICE proteins ([…] (1996)). The activation of ICE and ICE-like proteins is inhibited by the p35 protein of baculovirus (Clem and Miller (1994)), which can also be functional in mammalian cells (Rabizadeh, et al. (1993). To determine whether the synthetic peptides caused apoptosis through the ICE pathway, a plasmid expressing the p35 protein was stably introduced into C6 cells. C6 and C6/p35 cells were then tested for apoptosis in the diffusion chambers, using the synthetic peptide […]. 2 is a composite picture showing the expression of p35 in the various cell lines, and, below each lane, the percentage of cells recovered from the diffusion chamber.
sequence,measurement,setting,value
ALEPGPVTA [point mutant of …],% Recovery (24 hs),[1],224.0%
same,Protection from wild type cell challenge,[2],no
ATVPGPELY (D-amino acids) [ATVPGPELY (D-amino acid)],ability to induce apoptosis (in words),[1]; diffusion chamber,as effective as the L-amino acid sequences
same,% Recovery (24 hs),[1],6.0%
same,Protection from wild type cell challenge,[2],yes
"GILGFVPTL [Peptide M158-66, synthetic peptide corresponding to one derived from influenza virus]",Recovery (%),[3],23.4%
"LLDGTATLRL [MHC Class I peptide derived from gp100, human melanoma specific antigen]",% Recovery (24 hs),[1],5.0%
same,Protection from wild type cell challenge,[2],yes
LRLTATGDLL (D-amino acids) [LRLTATGDLL (D-amino acid)],ability to induce apoptosis (in words),[1]; diffusion chamber,as effective as the L-amino acid sequences
same,Percent Recovery,[1]; peptide 10^−5 M,0.5%
same,Percent Recovery,[1]; peptide 10^−8 M,3.0%
same,Percent Recovery,[1]; peptide 10^−12 M,6.6%
same,Percent Recovery,"[1]; peptide 10^−13 M, listed as LRLTATGDLL (D-aa)",18.0%
same,% Recovery (24 hs),[1],4.9%
same,Protection from wild type cell challenge,[2],yes
same,Percent Recovery,[4],6.6%
same,time of appearance of tumors,"[5]; peptide 0.1 ml s.c. at 10^−10 to 10^−12 M, simultaneously with and next to 10^5 C6 cells, nude mice",11 days
"SMAPGNYSV [control peptide, reference compound]",apoptotic cells by FACS analysis,[6],not
"TLGIVCPI [HPV-16 E786-93, MHC Class I peptide derived from Human Papilloma Virus Type 16 (HPV-16) E7 protein]",Recovery (%),[1],27%
YAEPGPVTA [point mutant of …],% Recovery (24 hs),[1],186.0%
same,Protection from wild type cell challenge,[2],no
YLAPGPVTA [point mutant of …],% Recovery (24 hs),[1],7.4%
same,Protection from wild type cell challenge,[2],yes
YLEAGPVTA [point mutant of …],% Recovery (24 hs),[1],224.0%
same,Protection from wild type cell challenge,[2],no
YLEPAPVTA [point mutant of …],% Recovery (24 hs),[1],70.0%
same,Protection from wild type cell challenge,[2],no
YLEPGAVTA,% Recovery (24 hs),[1],260.0%
same,Protection from wild type cell challenge,[2],no
same,Percent Recovery,[4],280%
YLEPGPATA [point mutant of …],% Recovery (24 hs),[1],11.0%
same,Protection from wild type cell challenge,[2],yes
YLEPGPVAA [point mutant of …],% Recovery (24 hs),[1],9.3%
same,Protection from wild type cell challenge,[2],yes
YLEPGPVKA [point mutant of …],% Recovery (24 hs),[1],12.0%
same,Protection from wild type cell challenge,[2],yes
YLEPGPVTA [MHC Class I peptide recognized by melanoma-specific human CTL lines],% Recovery (24 hs),[1],3.0%
same,Protection from wild type cell challenge,[2],yes
same,Percent Recovery,[4],0.2%
same,apoptotic cells by FACS analysis,[6],Apoptotic cells are detectable
YLEXGXVTA (X: N-Methyl-A) (YLE[NMeA]G[NMeA]VTA) [… with prolines replaced by an N-methyl amino acid],% Recovery (24 hs),[1],6.5%
same,Protection from wild type cell challenge,[2],yes
YLRPGPVRA [double mutant (E3 and T8) of …],% Recovery (24 hs),[1],77.0%
same,Protection from wild type cell challenge,[2],no
YLRPGPVTA [point mutant of …],% Recovery,"[1]; C6 cells incubated with 10^−5 M peptide 24 hours in serum-free medium, diffusion chamber",0.3%
same,% Recovery,"[1]; C6 cells incubated with 10^−8 M peptide 24 hours in serum-free medium, diffusion chamber",2.1%
same,% Recovery,"[1]; C6 cells incubated with 10^−10 M peptide 24 hours in serum-free medium, diffusion chamber",4.5%
same,% Recovery,"[1]; C6 cells incubated with 10^−12 M peptide 24 hours in serum-free medium, diffusion chamber",18%
same,Percent Recovery,[1]; peptide 10^−5 M,0.3%
same,Percent Recovery,[1]; peptide 10^−8 M,2.1%
same,Percent Recovery,[1]; peptide 10^−10 M,4.5%
same,Percent Recovery,[1]; peptide 10^−12 M,18%
same,% Recovery (24 hs),[1],3.5%
same,apoptosis in C6 cells and C6 cells stably transfected with the empty vector,"[1]; diffusion chamber, treated with peptide",underwent apoptosis
same,Protection from wild type cell challenge,[2],yes
same,Percent Recovery,[4],3.0%
same,Expected Delay,[5]; 10^−5 M peptide,14 days
same,Expected Delay,[5]; 10^−8 M peptide,11 days
same,Expected Delay,[5]; 10^−10 M peptide,10 days
same,Expected Delay,"[5]; 10^−12 M peptide, days before tumors should become palpable",8 days
same,Palpable Tumors,[5]; C6 cells pre-incubated with 10^−5 M peptide,21 days
same,Palpable Tumors,[5]; C6 cells pre-incubated with 10^−8 M peptide,15 days
same,Palpable Tumors,[5]; C6 cells pre-incubated with 10^−10 M peptide,14 days
same,Palpable Tumors,"[5]; C6 cells pre-incubated with 10^−12 M peptide, days after injection",11 days
same,inhibition of tumorigenesis (in words),"[5]; C6 cells pre-treated with peptide at 10^−12 to 10^−5 M, nude mice",concentration-dependent inhibition of tumorigenesis
same,growth of clones expressing the p35 protein in the diffusion chamber,[7],"grew in the diffusion chamber equally well whether untreated or incubated with the synthetic peptide; also recorded: grew in the diffusion chamber equally well, whether untreated or incubated with the synthetic peptide"
"YMLDLQPETT [HPV-16 E711-20, MHC Class I peptide derived from Human Papilloma Virus Type 16 (HPV-16) E7 protein]",Recovery (%),[1],13%
